# According to PMC4658230 (Toxicology, 2015):
# Where two headings read alike, the source gives them in different places.
# Key:
# erCYP2E1 [1] = biological target: T1, erCYP2E1 (Rattus norvegicus, UniProt P05182); settings: microsomes 0.5 mg/mL, methanol only
# mtCYP2E1 [2] = biological target: T2, mtCYP2E1 (Rattus norvegicus, UniProt P05182); settings: mitochondria 2 mg/mL, methanol only
# erCYP2E1 [3] = biological target: T1, erCYP2E1; assay: Steady-state kinetics of substrate oxidation by rat liver microsomes; settings: for Preferred Mechanism: rat liver microsomes, best of six steady-state mechanisms (DynaFit)
# mtCYP2E1 [4] = biological target: T2, mtCYP2E1; settings: for Preferred Mechanism: rat liver mitochondria, best of six steady-state mechanisms (DynaFit)
# erCYP2E1 [5] = biological target: T1, erCYP2E1; settings: equal CYP2E1 levels in each compartment assumed
# mtCYP2E1 [6] = biological target: T2, mtCYP2E1; settings: low concentration (10 μM); equal CYP2E1 levels in each compartment assumed
# [7] = more recent studies of industrial workers; ref Bonanni et al. 2015; cited from earlier work
# [8] = rat liver microsomes 0.5 mg/mL, 1 mM NADPH, 37°C, pH 7.4
# T1 sequence (P05182 whole entry): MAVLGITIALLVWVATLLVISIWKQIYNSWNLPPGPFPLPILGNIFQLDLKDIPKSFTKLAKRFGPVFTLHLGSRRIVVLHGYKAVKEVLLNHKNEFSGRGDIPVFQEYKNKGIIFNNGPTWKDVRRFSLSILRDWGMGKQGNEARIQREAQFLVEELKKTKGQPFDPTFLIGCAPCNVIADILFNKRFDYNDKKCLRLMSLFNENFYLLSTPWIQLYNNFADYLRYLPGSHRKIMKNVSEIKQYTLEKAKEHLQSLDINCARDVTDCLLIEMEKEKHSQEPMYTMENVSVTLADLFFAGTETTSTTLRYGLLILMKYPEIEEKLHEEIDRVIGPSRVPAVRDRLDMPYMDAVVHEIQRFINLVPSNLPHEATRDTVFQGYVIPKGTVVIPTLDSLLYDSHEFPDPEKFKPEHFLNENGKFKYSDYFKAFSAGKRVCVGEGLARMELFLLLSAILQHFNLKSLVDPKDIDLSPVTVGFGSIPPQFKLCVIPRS
# T2 sequence (P05182 2-493 limits assumed): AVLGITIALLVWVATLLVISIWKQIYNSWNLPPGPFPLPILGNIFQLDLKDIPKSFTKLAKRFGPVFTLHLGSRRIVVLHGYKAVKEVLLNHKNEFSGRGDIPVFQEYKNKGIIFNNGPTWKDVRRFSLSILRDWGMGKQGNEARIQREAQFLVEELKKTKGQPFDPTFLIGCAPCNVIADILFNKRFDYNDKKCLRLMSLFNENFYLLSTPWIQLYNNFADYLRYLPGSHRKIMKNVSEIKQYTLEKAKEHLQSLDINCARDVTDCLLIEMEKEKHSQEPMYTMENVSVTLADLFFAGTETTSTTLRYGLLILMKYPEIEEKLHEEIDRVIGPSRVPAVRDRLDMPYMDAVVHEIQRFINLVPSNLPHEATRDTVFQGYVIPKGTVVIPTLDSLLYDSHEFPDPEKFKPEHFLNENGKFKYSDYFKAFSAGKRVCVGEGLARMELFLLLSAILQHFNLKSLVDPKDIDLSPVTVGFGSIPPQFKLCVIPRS
SMILES,control (uninhibited) rate of substrate oxidation by erCYP2E1 (erCYP2E1 [1]; 50 μM substrate),control (uninhibited) rate of substrate oxidation by erCYP2E1 (erCYP2E1 [1]; 500 μM substrate),control (uninhibited) rate of substrate oxidation by mtCYP2E1 (mtCYP2E1 [2]; 50 μM substrate) [pmol/min/pmol CYP2E1],control (uninhibited) rate of substrate oxidation by mtCYP2E1 (mtCYP2E1 [2]; 500 μM substrate) [pmol/min/pmol CYP2E1],Kss (erCYP2E1 [3]; [8]),Preferred Mechanism (erCYP2E1 [3]),turnover rate of mtCYP2E1 lower than erCYP2E1 (mtCYP2E1 [4]; mtCYP2E1 versus erCYP2E1),Preferred Mechanism (mtCYP2E1 [4]),percent of total metabolism through erCYP2E1 (erCYP2E1 [5]; high concentration (500 μM)) [%],percent of total metabolism through erCYP2E1 (erCYP2E1 [5]; low concentration (10 μM)),percent of total metabolism through mtCYP2E1 (mtCYP2E1 [6]),"binding of second molecule weaker than first binding event (erCYP2E1 [3]; erCYP2E1, rat liver microsomes) [fold]","rate of turnover of ternary complex higher than binary enzyme-substrate complex (erCYP2E1 [3]; erCYP2E1, rat liver microsomes)",kcat (erCYP2E1 [3]; [8]),kcat2 (erCYP2E1 [3]; [8]),turnover rate of mtCYP2E1 lower than microsomal enzyme (mtCYP2E1 [4]; versus erCYP2E1 after first substrate binding event) [fold],styrene plasma levels [7] [µM],"kcat (mtCYP2E1 [4]; rat liver mitochondria 2 mg/mL, 1 mM NADPH, 37°C, pH 7.4)"
"O=[N+]([O-])c1ccc(O)cc1 [4-nitrophenol, reference compound]",290 pmol/min/pmol CYP2E1,1080 pmol/min/pmol CYP2E1,26,60,2000 (1600 to 2600) μM,"Two-Site Model, ES active only",nine-fold,One-Site Model (Michaelis-Menten),,,,,,,,,,
Nc1ccccc1 [aniline],260 pmol/min/mg,1000 pmol/min/mg,28,58,54 (21 to 550) μM,"Two-Site Model, ES and ESS active",,One-Site Model (Michaelis-Menten),95,approximately 94%,about 6%,25,two-fold,500 (230 to 770) pmol/min/pmol CYP2E1,1000 (970 to 1300) pmol/min/pmol CYP2E1,10,,
C=Cc1ccccc1 [styrene],310 pmol/min/mg,390 pmol/min/mg,54,76,,,,,,,,,,630 (580 to 690) pmol/min/pmol CYP2E1,,,0.06,100 (96 to 110) pmol/min/pmol CYP2E1
